Laboratory results: patent US10087225B2, “Formulation of MK2 inhibitor peptides” (MOERAE MATRIX, INC., priority 2015, dated 2018)
Peptide text beside a SMILES is read from it.

What was measured:
[1] = tested on: HCAVSMCs; test: Cytosolic vs. organelle bound peptide by digitonin semi-permeabilization; assay type: cell-based, human; settings: Bafilomycin treatment
Experimental: In order to quantify the cytosolic bioavailability of the MK2i and HSP20 peptides a method to separate cytosolic and organelle bound (i.e. endosomal, lysosomal, golgi, etc.) peptide was adapted from the methods developed by Liu et a140. The procedure was optimized for this experiment based upon LDH release from HCAVSMCs treated with varying concentrations of digitonin (Calbiochem) in buffer (150 mM NaCl, 0.2 mM EDTA, 20 mM HEPES-NaOH (pH 7.4), 2 mM DTT and 2 mM MgCL2) on ice for 10 mins on a rotary shaker operating at 100 RPM (supplementary FIG. 3). A concentration of 25 μg/mL was then chosen as the optimal digitonin concentration for selective semi-permeabilization of the HCAVSMC membrane and subsequently used for the analysis of intracellular peptide distribution.
To quantify intracellular distribution of the MK2i and p-HSP20 peptides, HCAVSMCs were seeded into a 96 well plate at a density of 20,000 cells/cm2 and allowed to adhere overnight in complete growth medium. A portion of the cells were pretreated with 500 nM Bafilomycin A1 (Sigma) for 30 minutes, and the Bafilomycin was included in subsequent peptide/NP treatment and in the post-treatment incubation phase to inhibit endosomal acidification. […] Treatments were removed and cells were incubated in fresh medium with or without 500 nM Bafilomycin A1 for 6 hours. […]

[2] = in vitro; settings: human, HCAVSMCs
Experimental: 200 μL of cell suspension (at 10,000 cells/well) were seeded onto 96-well plates to yield an approximate 70% confluence per well. Cells were allowed to adhere to the plate overnight. […] Treatments were subsequently removed and the cells were cultured in fresh complete growth medium for 24 hours. Cells were then washed 2× with PBS +/+ and cell viability was then determined by a CytoTox-ONE Homogenous Membrane Integrity assay (Promega) according to the manufacturer's protocol. Briefly, 100 μL of Ambion KDalert Lysis Buffer was added to each well, and then 100 μL of freshly prepared CytoTox-ONE reagent was added to each well. After 10 minutes of incubation, 50 μL of stop solution was added, and the fluorescence of each well (kλex=560 nm, λem, =590 nm) was determined with a TECAN Infinite M1000 Pro plate reader.

[3] = tested on: HCAVSMCs; settings: human, 72 h
Experimental: For MK2i-NP and HSP20-NP studies, An amine-reactive Alexa-488 succinimidyl ester (Life Technologies) was dissolved in DMSO and mixed at a 1 to 3 molar ratio with the MK2i or p-HSP20 peptide in 100 mM sodium bicarbonate buffer (pH=8.3) and allowed to react for 3 hours. Unreacted fluorophore and organic solvent were removed using a PD-10 miditrap G-10 desalting column, and the fluorescently labeled MK2i and p-HSP20 peptides were lyophilized. […] Similarly, PPAA was mixed with fluorescently labeled p-HSP20 at a CR of [NH3^+]/[COO^−]=1:3 and syringe filtered through a 0.45 μm PTFE filter to form fluorescent HSP20-NPs. HCAVSMCs were grown to 80-90% confluence, harvested, and seeded at 20,000 cells/well in a 24 well plate and allowed to adhere overnight. […] Following treatment, cells were washed 2× in PBS, and either immediately harvested or incubated in complete growth media for an additional 72 hours. Cells were harvested with 0.05% trypsin-EDTA, centrifuged, and suspended in 0.1% Trypan blue in PBS (−/−) for analysis on a FACSCalibur flow cytometer (Becton Dickinson) with BD CellQuest™ Pro software (V 5.2). Data was exported and analyzed with FlowJo software (V 7.6.4). All samples were run in triplicate.

[4] = tested on: human saphenous vein (HSV); test: Inhibition of phenylephrine-induced HSV contraction; settings: 2 h treatment
Experimental: Prior to experiments, HSV viability was confirmed. HSV rings were weighed and their lengths recorded. […] The rings were stretched and the length progressively adjusted until maximal tension was obtained 49. Normalized reactivity was obtained by determining the passive length-tension relationship for each vessel segment. Rings were maintained at a resting tension of 1 g, which produces maximal responses to contractile agonists, as previously determined, and equilibrated for 2 h in buffer. Force measurements were obtained using a Radnoti Glass Technology (Monrovia, Calif.) force transducer (159901A) interfaced with a Powerlab data acquisition system and LabChart software (AD Instruments, Colorado Springs, Colo.).
HSV rings were initially isometrically contracted with 110 mM KCl (with equimolar replacement of NaCl in bicarbonate buffer), and the generated force was measured. 110 mM KCl causes membrane depolarization, leading to contraction of vessels containing functionally viable smooth muscle. […]
Viable HSV rings were washed, allowed to equilibrate in bicarbonate solution for 30 min, and then contracted with phenylephrine (PE, 1 μM). […] Treated HSV rings were then contracted with the same doses of PE, and the forces generated were again recorded. […]

**Q.** What does the source list for `CC(C)C[C@H](NC(=O)CNC(=O)[C@@H]1CCCN1C(=O)[C@H](CC(C)C)NC(=O)[C@@H]1CCCN1C(=O)[C@H](C)NC(=O)[C@H](COP(=O)(O)O)NC(=O)[C@H](C)NC(=O)[C@H](CCCNC(=N)N)NC(=O)[C@H](CCCNC(=N)N)NC(=O)[C@H](CC(C)C)NC(=O)[C@H](Cc1c[nH]c2ccccc12)NC(=O)[C@H](C)NC(=O)[C@H](CCCNC(=N)N)NC(=O)[C@H](C)NC(=O)[C@H](CCC(N)=O)NC(=O)[C@H](CCCNC(=N)N)NC(=O)[C@H](C)NC(=O)[C@H](C)NC(=O)[C@H](C)NC(=O)[C@H](CCCNC(=N)N)NC(=O)[C@H](C)NC(=O)[C@@H](N)Cc1ccc(O)cc1)C(=O)N[C@@H](CCCCN)C(=O)O` [p-HSP20] (HELM PEPTIDE1{Y.A.R.A.A.A.R.Q.A.R.A.W.L.R.R.A.[O=C([C@H](COP(=O)(O)O)N[*:1])[*:2]].A.P.L.P.G.L.K}$$$$V2.0; N-terminus and C-terminus assumed)?
**A.** cytosolic fraction of internalized free peptide [1]: 7.36%±8.28%; viability at 2 h, 500 µM [2]: 77%; intracellular peptide retention (% of initial uptake remaining) [3]: 35%; PE-induced HSV contraction [4]: significantly inhibited
